The text below walks through data of patent publication US10543246B2, “Composition for preventing or treating hyperlipidemia” (HAWON PHARM. CORPORATION, priority 2014, dated 2020).

Holding throughout (type): in vivo, SD rats (Sprague-Dawley rats)
Experiment [1] relates to SD rats with a high cholesterol diet (hyperlipidemia model). The experiment is described as follows: Measurement of blood lipid in high cholesterol diet SD rats. To be noted: Ex. compositions 1000 mg/kg/day, atorvastatin 5 mg/kg/day.
Method: 6-Week-old male SD rats (Sprague-Dawley rats, body weight 180-220 g) were purchased from BioLink (Eumseong, Republic of Korea) and acclimated for a week. […] Drinking water was freely supplied. A room temperature of 22.0+/−2.0° C., a relative humidity of 50.0+/−10.0%, an illumination time of 12 hours (08:00 to 20:00), and an illuminance of 150 to 300 lux were set.
At the end of the experiment, each group was sacrificed after fasting for 12 hours. Their blood was collected from the posterior vena cava and transferred to an EDTA tube to separate the plasma. In the separated plasma, total cholesterol (TC), LDL cholesterol (LDL-c), HDL cholesterol (HDL-c) and triglycerides (TG) were measured using a biochemical kit (Asan Pharmaceutical Co., Ltd., Seoul, Republic of Korea).
The atherogenic index (AI) was calculated by the following equation (1) according to a method of Haulund et al. and the cardiac risk factor (CRF) was calculated by the following equation (2). Atherogenic Index(AI)=[(TC)−(HDL-c)]/[(HDL-c)] (1) Cardiac Risk Factor(CRF)=(TC)/(HDL-c) (2)
For experiment [2] the test system is unchanged. Description: Lipid analysis of liver tissue in high cholesterol diet SD rats. Particulars: liver lipid extract, oral, Ex. compositions 1,000 mg/kg, atorvastatin 5 mg/kg. How it is done: (§1) 6-Week-old male SD rats (Sprague-Dawley rats, body weight 180-220 g) were purchased from BioLink (Eumseong, Republic of Korea) and acclimated for a week. They were formed into groups of five rats as described in Table 2 below, and solid feed (Rodent NIH031 Open Formula Auto, Zeigler Bros., USA) and a high cholesterol diet (D12451 with 1.25% cholesterol, Research Diets Inc., USA) were freely fed. Drinking water was freely supplied. A room temperature of 22.0+/−2.0° C., a relative humidity of 50.0+/−10.0%, an illumination time of 12 hours (08:00 to 20:00), and an illuminance of 150 to 300 lux were set.
The total lipids in the liver were homogenized and then extracted using a Folch method. The extracted lipids were dissolved in an isopropanol solution, and then with the SPECTROstar Nano (BMG Labtech, Germany), total cholesterol and triglycerides in […] were colorimetrically quantified at 500 nm and 550 nm, respectively, using an enzyme reagent kit (Asan Pharmaceutical Co., Ltd., Seoul, Republic of Korea).

For experiment [3] the test system is unchanged. Description: Measurement of body weight and liver weight, visual inspection of liver tissue. Particulars: oral, 4 weeks, Ex. compositions 1,000 mg/kg, atorvastatin 5 mg/kg, mean of five rats. How it is done: as §1
The body weight before drug administration and the body weight after the end of the experiment were measured. The liver weight was measured by weighing the liver extracted after lethal bleeding on the day of autopsy, and visual inspection of liver tissue was performed.

On to `CC(C)c1c(C(=O)Nc2ccccc2)c(-c2ccccc2)c(-c2ccc(F)cc2)n1CC[C@@H](O)C[C@@H](O)CC(=O)O` [Atorvastatin], for which the “Cardiac Risk Factor (CRF)” value in experiment [1] ((TC)/(HDL-c)) amounted to 2.6. In experiment [1], this compound returned an LDL/HDL of 0.9. For the same compound, in experiment [2], the “Hepatic total cholesterol concentration” value amounted to 146 mg/dL and the Hepatic triglyceride concentration worked out at 197 mg/dL. Further, in experiment [3], the Body weight was 571.6 g, the Liver weight worked out at 24.5 g and the “Liver weight/Body weight” value came out at 4.26%.
